Where a name gives a salt, the structure may show the parent alone. Read-outs that look alike come from different tables or passages of the source.
Tests used:
Format in all cases: biochemical
recombinant PRL-1 = target: T1, recombinant PRL-1 (Homo sapiens, UniProt Q93096); experiment: In vitro phosphatase assay (DiFMUP hydrolysis), PRL-1; note: test concentration or dose not given here
T1 construct: 6xHis (N, cleaved yes); made in house; host or cells: E. coli One Shot BL21 Star
T1 sequence (Q93096 1-173): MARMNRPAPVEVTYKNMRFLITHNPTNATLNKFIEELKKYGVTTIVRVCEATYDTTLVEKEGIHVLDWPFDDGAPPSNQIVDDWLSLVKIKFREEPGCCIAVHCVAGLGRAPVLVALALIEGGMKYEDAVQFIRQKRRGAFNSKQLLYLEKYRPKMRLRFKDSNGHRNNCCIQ

recombinant PRL-2 = target: T2, recombinant PRL-2 (Homo sapiens, UniProt Q12974); experiment: In vitro phosphatase assay (DiFMUP hydrolysis), PRL-2;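 note: PRL-2 activity read as DiFMUP hydrolysis after 20 min at room temperature with drug, enzyme first pre-reduced at 4 °C for 20 min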
T2 construct: 6xHis (N, cleaved yes); made in house; host or cells: E. coli One Shot BL21 Star
T2 sequence (Q12974 1-167): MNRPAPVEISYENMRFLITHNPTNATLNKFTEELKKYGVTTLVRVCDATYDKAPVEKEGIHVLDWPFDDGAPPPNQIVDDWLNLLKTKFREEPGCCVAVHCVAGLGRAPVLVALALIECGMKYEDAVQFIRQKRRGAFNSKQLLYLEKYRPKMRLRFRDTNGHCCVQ

recombinant PRL-3 = target: T3, recombinant PRL-3 (Homo sapiens, UniProt O75365); experiment: In vitro phosphatase assay (DiFMUP hydrolysis), PRL-3; note: test concentration or dose not given here
T3 construct: 6xHis (N, cleaved yes); made in house; host or cells: E. coli One Shot BL21 Star

[1] = FDA-approved drug screen, compared to DMSO

T3 sequence (O75365 whole entry): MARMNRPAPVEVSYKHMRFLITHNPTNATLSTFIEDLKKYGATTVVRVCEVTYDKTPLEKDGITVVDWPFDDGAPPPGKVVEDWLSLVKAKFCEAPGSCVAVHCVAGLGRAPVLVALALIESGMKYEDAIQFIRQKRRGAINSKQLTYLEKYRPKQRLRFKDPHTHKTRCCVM

Row | SMILES | % Phosphatase Activity (compared to DMSO) PRL-1 (recombinant PRL-1; [1]) | % Phosphatase Activity (compared to DMSO) PRL-2 (recombinant PRL-2; [1]) | % Phosphatase Activity (compared to DMSO) PRL-3 (recombinant PRL-3; [1]) | % Phosphatase Activity (compared to DMSO) PRL-1 (recombinant PRL-1) | % Phosphatase Activity (compared to DMSO) PRL-2 (recombinant PRL-2) | % Phosphatase Activity (compared to DMSO) PRL-3 (recombinant PRL-3)
1 | O=C(NCCO[N+](=O)[O-])c1cccnc1 [Nicorandil] | 86% | 103% | 91% | – | – | –
2 | NC(=O)c1cccnc1 [Nicotinamide (Vitamin B3)] | 88% | 95% | 98% | – | – | –
3 | CN1CCC[C@H]1c1cccnc1.O=C(O)C(O)C(O)C(=O)O.O=C(O)C(O)C(O)C(=O)O [Nicotine Ditartrate] | – | – | – | 95% | 96% | 96%
4 | O=C(O)c1cccnc1 [Nicotinic Acid] | – | – | – | 95% | 94% | 91%
5 | Cc1c(NC(=O)c2cccnc2)c(=O)n(-c2ccccc2)n1C [Nifenazone] | 91% | 105% | 92% | – | – | –
6 | O=C(O)c1cccnc1Nc1cccc(C(F)(F)F)c1 [Niflumic acid] | 109% | 112% | 88% | – | – | –
7 | O=C(N/N=C/c1ccc([N+](=O)[O-])o1)c1ccc(O)cc1 [Nifuroxazide] | 68% | 62% | 57% | – | – | –
8 | Cc1cn(-c2cc(NC(=O)c3ccc(C)c(Nc4nccc(-c5cccnc5)n4)c3)cc(C(F)(F)F)c2)cn1 [Nilotinib (AMN-107)] | 83% | 92% | 76% | – | – | –
9 | COC(=O)C1=C(C#N)NC(C)=C(C(=O)OC(C)C)C1c1cccc([N+](=O)[O-])c1 (stereo not drawn) [Nilvadipine] | 88% | 82% | 87% | – | – | –
10 | CS(=O)(=O)Nc1ccc([N+](=O)[O-])cc1Oc1ccccc1 [Nimesulide] | – | – | – | 78% | 83% | 85%
11 | COCCOC(=O)C1=C(C)NC(C)=C(C(=O)OC(C)C)C1c1cccc([N+](=O)[O-])c1 (stereo not drawn) [Nimodipine] | 76% | 72% | 88% | – | – | –
12 | COC(=O)c1ccc2c(c1)NC(=O)/C2=C(\Nc1ccc(N(C)C(=O)CN2CCN(C)CC2)cc1)c1ccccc1 [Nintedanib (BIBF 1120)] | 92% | 106% | 73% | – | – | –
13 | COC(=O)C1=C(C)NC(C)=C(C(=O)OCC(C)C)C1c1ccccc1[N+](=O)[O-] (stereo not drawn) [Nisoldipine] | 81% | 75% | 85% | – | – | –
14 | CC(=O)Oc1ccccc1C(=O)Nc1ncc([N+](=O)[O-])s1 [Nitazoxanide] | 87% | 76% | 62% | – | – | –
15 | CCOC(=O)C1=C(C)NC(C)=C(C(=O)OC)C1c1cccc([N+](=O)[O-])c1 (stereo not drawn) [Nitrendipine] | 85% | 84% | 68% | – | – | –
16 | NC(=O)N/N=C/c1ccc([N+](=O)[O-])o1 [Nitrofural] | 82% | 72% | 68% | – | – | –
17 | O=C1CN(/N=C/c2ccc([N+](=O)[O-])o2)C(=O)N1 [Nitrofurantoin] | – | – | – | 76% | 63% | 67%
18 | O=[N+]([O-])c1ccc(O)c2ncccc12 [Nitroxoline] | 58% | 48% | 49% | – | – | –
19 | CNC(=C[N+](=O)[O-])NCCSCc1csc(CN(C)C)n1 [Nizatidine] | 87% | 105% | 97% | – | – | –
20 | NC[C@H](O)c1ccc(O)c(O)c1.O.O=C(O)C(O)C(O)C(=O)O [Noradrenaline bitartrate monohydrate] | 103% | 120% | 88% | – | – | –
21 | C#C[C@]1(O)CC[C@H]2[C@@H]3CCC4=CC(=O)CC[C@@H]4[C@H]3CC[C@@]21C [Norethindrone] | 92% | 104% | 79% | – | – | –
22 | CCn1cc(C(=O)O)c(=O)c2cc(F)c(N3CCNCC3)cc21 [Norfloxacin] | 131% | 130% | 111% | – | – | –
23 | COc1ccc2c(c1OC)C(=O)O[C@@H]2[C@H]1c2c(cc3c(c2OC)OCO3)CCN1C [Noscapine HCl] | 92% | 116% | 103% | – | – | –
24 | CO[C@@H]1[C@@H](OC(N)=O)[C@@H](O)[C@H](Oc2ccc3c(O)c(NC(=O)c4ccc(O)c(CC=C(C)C)c4)c(=O)oc3c2C)OC1(C)C [Novobiocin Sodium] | 94% | 87% | 70% | – | – | –
25 | C[C@@H]1[C@H](O)[C@@H](C)/C=C/C=C/CC/C=C/C=C/C=C/C=C/[C@H](O[C@H]2O[C@@H](C)[C@H](O)[C@@H](N)[C@H]2O)C[C@@H]2O[C@](O)(C[C@@H](O)[C@H](O)CC[C@@H](O)C[C@@H](O)C[C@@H](O)CC(=O)O[C@H]1C)C[C@H](O)[C@H]2C(=O)O [Nystatin (Fungicidin)] | 79% | 87% | 81% | – | – | –
26 | C[C@]1(O)C[C@@H](c2nc(-c3ccc4ccc(-c5ccccc5)nc4c3)c3c(N)nccn32)C1 [OSI-906 (Linsitinib)] | 79% | 96% | 77% | – | – | –
27 | CC[C@H]1[C@@H](O)[C@@H]2[C@H](CC[C@]3(C)[C@@H]([C@H](C)CCC(=O)O)CC[C@@H]23)[C@@]2(C)CC[C@@H](O)C[C@@H]12 [Obeticholic Acid] | 86% | 72% | 90% | – | – | –
28 | CNS(=O)(=O)C[C@H]1CC[C@H](N(C)c2ncnc3[nH]ccc23)CC1 [Oclacitinib] | 98% | 81% | 80% | – | – | –
29 | C[C@@H](O)[C@@H]1NC(=O)[C@H](CCCCN)NC(=O)[C@@H](Cc2c[nH]c3ccccc23)NC(=O)[C@H](Cc2ccccc2)NC(=O)[C@@H](NC(=O)[C@H](N)Cc2ccccc2)CSSC[C@@H](C(=O)N[C@H](CO)[C@@H](C)O)NC1=O [Octreotide Acetate] | 99% | 90% | 93% | – | – | –
